Structures can show the parent of a compound that is named as a salt. Where two headings read alike, the source gives them in different places. Blank lines part the entries; values can stand above or below the molecule they belong to.
Key:
[1] = Solubility of nateglinide in solvents; type: physicochemical; conditions: mixture of methanol, water and a base (source of ammonium ions)
[2] = cited from earlier work
[3] = DSC, according to U.S. Pat. No. 5,463,116; cited from earlier work

solubility [1]: relatively insoluble
Compound: CC(C)[C@H]1CC[C@H](C(=O)N[C@H](Cc2ccccc2)C(=O)O)CC1 [Form Phi, nateglinide ammonium salt]

Compound: CC(C)[C@H]1CC[C@H](C(=O)N[C@H](Cc2ccccc2)C(=O)O)CC1 [nateglinide, (−)-N-(trans-4-isoporpylcyclohexanecarbonyl)-D-Phenylalanine]
solubility ([2]; in acetonitrile): sparingly soluble
solubility ([2]; in chloroform): freely soluble
solubility ([2]; in ethanol): freely soluble
solubility ([2]; in ether): soluble
solubility ([2]; in methanol): freely soluble
solubility ([2]; in octanol): sparingly soluble
solubility ([2]; in water): practically insoluble
solubility ([2]; in water, listed as Nateglinide): insoluble

Compound: CC(C)[C@H]1CC[C@H](C(=O)N[C@H](Cc2ccccc2)C(=O)O)CC1 [B-type, nateglinide]
stability of crystal form during grinding [3]: unstable and susceptible to change during grinding

Source: patent publication US20060004102A1, “Polymorphic forms of nateglinide” (priority 2004, published 2006)
